The values below come from patent publication US9932300B2, “N,N′-diarylurea compounds and N,N′-diarylthiourea compounds as inhibitors of translation initiation” (President and Fellows of Harvard College, priority 2009, dated 2018).

The assay deals with eIF2-GTP-Met-tRNAi ternary complex. As to the kind of experiment: Ternary complex assay (dual luciferase, firefly/renilla ratio) in stable KLN-tTA/pBISA-DL(ATF-4) cells; HTS and hit confirmation. Format: cell-based, mouse. On the set-up: Activity 10 uM / Activity 2.5 uM / Activity 5 uM: unit not given here. As to conditions: confirmed hits of the screen (Table 5); for Activity 5 uM: compound at 5 uM; for Activity 10 uM: compound at 10 uM; for Activity 2.5 uM: compound at 2.5 uM. From the text: For assay development, a bi-directional plasmid was designed in which a common promoter/enhancer complex drives the transcription of firefly luciferase (F-luc) ORF fused to the 5′ untranslated region (UTR) of ATF-4, and of the renilla luciferase (R-luc) ORF fused to a 90-nucleotide 5′ UTR derived from the plasmid (FIG. 6A). Because the tetracycline-regulated transactivator ((tTA), required for driving transcription from this vector) is not normally expressed in the mammalian cells, stable KLN cancer cells were constructed that expressed tTA (KLN-tTA).
The KLN-tTA colonies that drove expression of reporter genes from pBISA-DL plasmid were selected by transient transfection and dual luciferase assay. One of these KLN-tTA cell lines was transfected with the pBISA-DL^(ATF-4) expression vector, stable colonies were selected by dual luciferase assay and expanded. To determine if reduced availability of the eIF2*GTP*Met-tRNAi ternary complex increased the translation of firefly luciferase and decreased translation of renilla luciferase, selected KLN-tTA/pBISA-DL^(AFT-4) colonies were treated with thapsigargin (TG) or tunicamycin (TU), two agents known to cause phosphorylation of eIF2α.
This assay was then adapted for high throughput screening in 96 and 384 well plates. This was done by evaluating the cell density, length of exposure to compounds, DMSO tolerance and optimum firefly and renilla substrate. We then challenged these cells with thapsigargin or DMSO. […] Cell-based assays usually have higher variation than homogeneous in vitro assays due to position effect in the plate, and other variables associated with handling of cells and the plates.
Screening was conducted in 384 well white opaque plates (Nalge Nunc), 100 μl volume RPMI+10% fetal bovine serum. Cells were plated at the sub-confluent density of 10,000 cells/well, and allowed to attach for a period of 16-18 hours at 37° C., 5% CO2. Compounds were added as 1 μl of a 1 mM DMSO stock solution for a final screening concentration of 10 μM, using low-volume tips for transfer (Molecular Bioproducts). Cells were then incubated in the presence of compound for an additional sixteen hours, again at 37° C., 5% CO2. Following incubation 70 μl of the culture medium was removed from each well to allow for reagent addition and plates were allowed to equilibrate to room temperature for thirty minutes. Firefly luciferase reporter activity was then read by the addition of thirty microliters of Dual Glo Luciferase reagent (Promega), followed by one hour incubation at room temperature to allow for adequate signal buildup. Luminescence counting was conducted on a Microbeta Trilux using a 1 second read time. Renilla luciferase reporter activity was measured following addition of 30 μl Stop and Glo Luciferase reagent (Promega) and incubation identical to the one carried out for the firefly luciferase one.
Compound scores were interpreted as firefly luciferase activity divided by renilla luciferase activity, normalized to the plate's DMSO control. […] All data analysis was conducted using the BioAssay HTS software package (CambridgeSoft).
102,709 compounds in the NCI Open Chemical Repository were then screened using this HTS assay. […] Initial hits were confirmed by repeating the same dual luciferase assay in 96 well plates. Briefly, 20,000 cells/well were plated in triplicate for each concentration (10, 5 and 2.5 μM) of the compounds.

SMILES strings stand for the structures.

With `CCCCCCCCCCCC(c1ccccc1)[N+](C)(C)Cc1ccccc1.[Cl-]` (stereo not shown) [Compound 69510], the “Activity 5 uM” value worked out at 5.6 and the “Activity 10 uM” value is given as 10.9. For `O=C1C(Cl)=C(Cl)C(=O)N1c1cccc2c(N3C(=O)C(Cl)=C(Cl)C3=O)cccc12` [Compound 69580], in that order: 3.5 and 6.4. Regarding `O=C(Nc1cccc(Cl)c1)Nc1cccc(Cl)c1` [Compound 69625], the “Activity 5 uM” value came to 6.201 and the “Activity 10 uM” value amounted to 4.8565. In the case of `O=C(CCl)N1c2ccccc2Sc2ccccc21` [Compound 71676], the “Activity 5 uM” value is 2.922 and the “Activity 10 uM” value amounted to 4.1015. In the case of `Clc1cccc2ccc(-c3cc4ccccc4s3)nc12` [Compound 71689], the “Activity 5 uM” value is 5.724 and the “Activity 10 uM” value was 7.139. Taken in the same sequence, the figures for `c1csc(-c2ccc3ccccc3n2)c1` [Compound 71690] were 2.889 and 3.4315.

For the compound `O=C(/C=C/c1ccccc1)OC1CCCCC1` [Compound 71968], the “Activity 5 uM” value is reported as 2.615 and the “Activity 10 uM” value stood at 3.5615. Regarding `O=C(Nc1ccc(Cl)cc1)Nc1ccc(Cl)c(Cl)c1` [Compound 72005], the “Activity 5 uM” value worked out at 11.25 and the “Activity 10 uM” value turned out to be 16.9235. With `O=C(OCCc1ccccc1)c1ccccc1O` [Compound 72035], the “Activity 5 uM” value amounted to 3.275 and the “Activity 10 uM” value is 3.8265. As for `CCOC(=O)c1cnc(SCc2ccccc2)nc1N` [Compound 72266], the “Activity 5 uM” value came out at 2.946 and the “Activity 10 uM” value is listed as 3.233.

As to `COc1cc(NC(=O)c2cc3ccccc3cc2O)c(OC)cc1Cl` [Compound 73118], the “Activity 5 uM” value was determined as 8.006 and the “Activity 10 uM” value was found to be 10.008.

With `CCCCCCCCCCCCCCCCCC[N+](C)(C)C.Cc1ccc(S(=O)(=O)[O-])cc1` [Compound 74566], the “Activity 5 uM” value stood at 1.7 and the “Activity 10 uM” value was determined as 3.7. Regarding `CCCCCCCCCCCCCCCCCC[N+](C)(C)C.O=S(=O)([O-])c1ccccc1` [Compound 74568], the “Activity 5 uM” value was found to be 2.1 and the “Activity 10 uM” value is reported as 4.8.

Consider `C(=P(c1ccccc1)(c1ccccc1)c1ccccc1)[P+](c1ccccc1)(c1ccccc1)c1ccccc1.[Br-]` [Compound 74740], for which the “Activity 5 uM” value stood at 5.6 and the “Activity 10 uM” value is given as 4.1. For `Cl.NC(N)=N/N=C/N/N=C/c1ccccc1O` [Compound 75971], in that order: 3.111 and 3.3355. `CC(=O)[O][Sn]([c]1ccccc1)([c]1ccccc1)[c]1ccccc1` [Compound 76068]: the “Activity 2.5 uM” value was found to be 1.02 and the “Activity 10 uM” value worked out at 3.68. With `Oc1ccccc1/C=N/NC(=S)Nc1ccc2cn[nH]c2c1` [Compound 76429], the “Activity 5 uM” value stood at 4.409 and the “Activity 10 uM” value came out at 5.2405. Take `ClCCN(CCCl)c1ccc(C2=Nc3cccc4cccc(c34)N2)cc1` [Compound 78577]: the “Activity 2.5 uM” value came to 0.74 and the “Activity 10 uM” value turned out to be 3.56. In the case of `CCCCCCCCCCCC[n+]1ccc(C)cc1C.Cc1ccc(S(=O)(=O)[O-])cc1` [Compound 78949], the “Activity 5 uM” value was determined as 4.1 and the “Activity 10 uM” value is on record as 7.7.

For the compound `O=Nc1c2cc3ccccc3[nH]c-2c2ccccc12` [Compound 81523], the “Activity 5 uM” value is 7.526 and the “Activity 10 uM” value turned out to be 8.879. Taken in the same sequence, the figures for `Clc1ccc(/C=N\N2CCCCCC2)cc1` [Compound 82278] were 3.288 and 3.1525.

Take `CCCCCCCCCCCCCC[n+]1ccccc1.[Cl-]` [Compound 82910]: the “Activity 5 uM” value was determined as 7.654 and the “Activity 10 uM” value is 12.4425. Taken in the same sequence, the figures for `CCN(CC)c1ccc(/C=C2\C=Cc3ccccc32)cc1` [Compound 83089] were 10.155 and 5.1265.

Turning to `O=[N+]([O-])c1ccc(N=Nc2c(Cl)cc(O)cc2Cl)cc1` [Compound 83318], the “Activity 5 uM” value is reported as 12.03 and the “Activity 10 uM” value is 14.6225. Take `CNc1c(F)cc(N=Nc2ccccc2)cc1F` [Compound 83335]: the “Activity 2.5 uM” value is recorded as 2.77 and the “Activity 10 uM” value was 3.31. On to `CCCCCCCCCCCC[N+](C)(C)C.[O-]c1c(Cl)c(Cl)c(Cl)c(Cl)c1Cl` [Compound 85573], for which the “Activity 5 uM” value is on record as 2.1 and the “Activity 10 uM” value was 3.1.

As for `CC(=O)c1cccc(N=NNc2cccc(C(C)=O)c2)c1` [Compound 85646], the “Activity 5 uM” value was found to be 3.127 and the “Activity 10 uM” value is recorded as 4.18. Taken in the same sequence, the figures for `C1=Cc2ccccc2/C1=C/c1ccc2c(c1)OCO2` [Compound 86430] were 4.871 and 6.063. Turning to `COc1ccc(NNc2ccc(OC)cc2)cc1` [Compound 86489], the “Activity 2.5 uM” value turned out to be 2.73 and the “Activity 10 uM” value was determined as 3.17.

Consider `Cc1ccc(NN(C)c2ccc(C)cc2)cc1` [Compound 86537], for which the “Activity 2.5 uM” value came to 3.85 and the “Activity 10 uM” value is 7.51. With `Cc1ccc(NNc2ccc(C)cc2)cc1` [Compound 86544], the “Activity 5 uM” value is listed as 3.954 and the “Activity 10 uM” value is given as 4.845.

Consider `O=c1[nH]cnc2nc(-c3ccc(N(CCCl)CCCl)cc3)[nH]c12` [Compound 87086], for which the “Activity 5 uM” value was found to be 6.572 and the “Activity 10 uM” value amounted to 5.461. `Br.CCC1=C(C)/C(=C/c2[nH]c(C)c(CC)c2C)N=C1C` [Compound 87240]: the “Activity 2.5 uM” value stood at 1.45 and the “Activity 10 uM” value was 37.28. Take `CN(C)c1ccc(N=Nc2ccc3ncccc3c2)cc1` [Compound 87323]: the “Activity 5 uM” value is 5.277 and the “Activity 10 uM” value turned out to be 6.0905. Consider `OCCc1ccc(-n2cnc3c(Nc4ccc(Cl)cc4)ncnc32)cc1` [Compound 87695], for which the “Activity 2.5 uM” value stood at 3.28 and the “Activity 10 uM” value worked out at 4.42. Consider `O=Cc1cc(CCCCCCc2ccc(O)c(C=O)c2)ccc1O` [Compound 88001], for which the “Activity 5 uM” value came out at 12 and the “Activity 10 uM” value was 21.4655.

Turning to `Cc1cc(N(CCCl)CCCl)ccc1CN1CCCN(Cc2ccc(N(CCCl)CCCl)cc2C)C1c1ccccc1O` [Compound 88655], the “Activity 2.5 uM” value is on record as 0.7 and the “Activity 10 uM” value turned out to be 18.32. Take `CN(CCC(=O)/C(=C\c1ccc(Cl)cc1)c1ccccc1)Cc1ccccc1.Cl` [Compound 89160]: the “Activity 2.5 uM” value is on record as 9.22. `ClCCN(CCCl)c1ccc(C(Cl)(c2ccc(N(CCCl)CCCl)cc2)c2ccc(N(CCCl)CCCl)cc2)cc1` [Compound 89864]: the “Activity 5 uM” value was 9.4 and the “Activity 10 uM” value came to 10.1. For the compound `Clc1ccccc1-c1ncc(-c2ccccc2)o1` [Compound 90299], the “Activity 2.5 uM” value is recorded as 2.1 and the “Activity 10 uM” value was 3.21. Taken in the same sequence, the figures for `Clc1ccc(-c2ncc(-c3ccccc3)o2)c(Cl)c1` [Compound 90467] were 2.6 and 3.88. On to `Cc1cccc(-c2ncc(-c3ccccc3)o2)c1` [Compound 90777], for which the “Activity 5 uM” value was determined as 6.553 and the “Activity 10 uM” value is 8.406. With `CCC[N+]1=C(/C=C/c2cc(C)c3cccnc3c2O)C(C)(C)c2ccccc21` [Compound 91815], the “Activity 2.5 uM” value is reported as 3.3 and the “Activity 10 uM” value was found to be 15.17. Taken in the same sequence, the figures for `CC1=C/C(=C\C=C2/N(C)c3c(C)cccc3C2(C)C)C(=O)c2ncccc21` [Compound 91816] were 17.64 and 29.75.

As for `Cc1ccc(O)c(-n2nc3ccccc3n2)c1` [Compound 91885], the “Activity 5 uM” value is 3.742 and the “Activity 10 uM” value came to 4.473. For `O=C1c2ccccc2C(=O)c2c1ccc1c2[nH]c2ccccc21` [Compound 92938], the “Activity 2.5 uM” value was 3.41 and the “Activity 10 uM” value came out at 4.68.
